Data on 21 compounds can be found in PubChem BioAssay AID310 (DTP/NCI, 2004).

Several values for one entry are separate records, joined by “and”; a condition that tells them apart may be missing. Equal values may be shown once. Records with an inconclusive call do not appear.

For the assay, the system named is C3AKF1 mice, osteogenic sarcoma HE10734 s.c., tumor weight T/C. The assay can be described thus: NCI In Vivo Anticancer Drug Screen. Data for tumor model Osteogenic Sarcoma HE 10734 (subcutaneous) in C3AKF1 (CHKRF1) mice. The settings on record: endpoint: mean tumor weight, schedule: Q01DX010 (ip), higher = larger tumour. As to the method:
The antitumor activity of compounds was measured in mice bearing transplantable tumors. Survival or tumor size were measured and the results are expressed as the measurement made in the treated group (T) divided by the measurement made in the vehicle treated control group (C). The tumor model used in this assay is Osteogenic Sarcoma HE 10734 (subcutaneous) in C3AKF1 (CHKRF1) mice

[1] abbreviates: dose: 25.0 mg/kg/injection, vehicle: saline.
[2] abbreviates: dose: 12.0 mg/kg/injection, vehicle: saline.
The mark [3] stands for this setting: dose: 50.0 mg/kg/injection, vehicle: saline.
Setting [4] is: dose: 100.0 mg/kg/injection, vehicle: saline.
Where [5] appears, read: dose: 2.5 mg/kg/injection, vehicle: carboxymethylcellulose (CMC).
Where [6] appears, read: dose: 25.0 mg/kg/injection, vehicle: carboxymethylcellulose (CMC).
Setting [7] is: dose: 50.0 mg/kg/injection, vehicle: carboxymethylcellulose (CMC).
Setting [8] is: dose: 55.0 mg/kg/injection, vehicle: carboxymethylcellulose (CMC).
The mark [9] stands for this setting: dose: 200.0 mg/kg/injection, vehicle: saline.
Where [10] appears, read: dose: 8.0 mg/kg/injection, vehicle: carboxymethylcellulose (CMC).

With `O=P(c1ccccc1)(N1CC1)N1CC1`, the T/C (dose: 3.13 mg/kg/injection, vehicle: saline) is 106 % of control; the T/C (dose: 6.25 mg/kg/injection, vehicle: saline) is 93 % of control; the T/C (dose: 12.5 mg/kg/injection, vehicle: saline) is 105 % of control; the T/C under setting [1] was 68 % of control and 71 % of control.

With `S=c1nc[nH]c2c1ncn2C1CCCO1` (stereo not drawn), the T/C was 84 % of control under setting [2]; 85 % of control under setting [1]; 62 % of control under setting [3]; 30 % of control and 33 % of control under setting [4].

Consider `NC(=O)c1ccc(NC(=O)CCC(=O)Nc2ccc(C(N)=O)cn2)nc1`, for which the T/C is 118 % of control and 120 % of control (dose: 0.66 mg/kg/injection, vehicle: carboxymethylcellulose (CMC)); 67 % of control under setting [5].

In the case of `NC(CCSCc1ccc(N(CCCl)CCCl)cc1)C(=O)O` (stereo not drawn), the T/C was 74 % of control (dose: 4.5 mg/kg/injection, vehicle: saline); 105 % of control and 118 % of control (dose: 9.0 mg/kg/injection, vehicle: saline); 39 % of control (dose: 54.0 mg/kg/injection, vehicle: saline).

On to `Nc1nc(SCc2ccccc2Cl)c2ncn(C3OC(CO)C(O)C3O)c2n1` (stereo not drawn), for which the T/C was 90 % of control (dose: 12.5 mg/kg/injection, vehicle: carboxymethylcellulose (CMC)); 81 % of control under setting [6]; 61 % of control under setting [7].

Take `CCCCCCCCCCCCO[P+](=O)OCCCCCCCCCCCC`: the T/C (dose: 65.0 mg/kg/injection, vehicle: carboxymethylcellulose (CMC)) is 81 % of control; the T/C (dose: 95.0 mg/kg/injection, vehicle: carboxymethylcellulose (CMC)) is 55 % of control; the T/C (dose: 145.0 mg/kg/injection, vehicle: carboxymethylcellulose (CMC)) is 51 % of control; the T/C (dose: 220.0 mg/kg/injection, vehicle: carboxymethylcellulose (CMC)) was 48 % of control; the T/C (dose: 222.0 mg/kg/injection, vehicle: carboxymethylcellulose (CMC)) is 36 % of control.

For the compound `CC(C)([NH-])CO.CC(C)([NH-])CO.[Cl][Cd][Cl]`, the T/C under setting [5] is 88 % of control; the T/C (dose: 5.0 mg/kg/injection, vehicle: carboxymethylcellulose (CMC)) was 57 % of control; the T/C (dose: 10.0 mg/kg/injection, vehicle: carboxymethylcellulose (CMC)) was 25 % of control.

For `Nc1nc(N)c(N=O)c(Nc2ccc(Br)cc2)n1`, the T/C reads like this: (dose: 22.0 mg/kg/injection, vehicle: carboxymethylcellulose (CMC)) 94 % of control; (dose: 44.0 mg/kg/injection, vehicle: carboxymethylcellulose (CMC)) 66 % of control; (dose: 88.0 mg/kg/injection, vehicle: carboxymethylcellulose (CMC)) 62 % of control; (dose: 175.0 mg/kg/injection, vehicle: carboxymethylcellulose (CMC)) 58 % of control and 61 % of control; (dose: 265.0 mg/kg/injection, vehicle: carboxymethylcellulose (CMC)) 33 % of control; (dose: 395.0 mg/kg/injection, vehicle: carboxymethylcellulose (CMC)) 34 % of control.

Take `NC1(C(=O)O)CCCC1`: the T/C is 109 % of control (dose: 15.0 mg/kg/injection, vehicle: saline); 46 % of control (dose: 23.0 mg/kg/injection, vehicle: saline); 77 % of control (dose: 35.0 mg/kg/injection, vehicle: saline); 30 % of control and 42 % of control under setting [8]; 46 % of control (dose: 55.0 mg/kg/injection, vehicle: saline); 27 % of control and 45 % of control (dose: 85.0 mg/kg/injection, vehicle: carboxymethylcellulose (CMC)).

As to `COc1ccc(Nc2ccnc3cc(Cl)ccc23)cc1CN(CCCl)CCCl`, the T/C was 73 % of control (dose: 0.75 mg/kg/injection, vehicle: saline); 57 % of control (dose: 1.5 mg/kg/injection, vehicle: saline); 69 % of control (dose: 3.0 mg/kg/injection, vehicle: saline).

Consider `CCn1cnc2c(SC)nc(N)nc21`, for which the T/C under setting [2] was 76 % of control; the T/C under setting [1] is 93 % of control; the T/C under setting [3] was 95 % of control; the T/C under setting [4] is 108 % of control; the T/C (dose: 340.0 mg/kg/injection, vehicle: saline) is 57 % of control.

As to `CCCCSc1nc(N)nc2c1ncn2CC(C)CC` (stereo not drawn), the T/C runs as follows: under setting [4], 109 % of control; under setting [9], 57 % of control.

On to `CCOc1ccc(Nc2ncnc3nc[nH]c23)cc1CN(CCCl)CCCl`, for which the T/C is, setting by setting: (dose: 1.0 mg/kg/injection, vehicle: carboxymethylcellulose (CMC)) 86 % of control; (dose: 4.0 mg/kg/injection, vehicle: carboxymethylcellulose (CMC)) 94 % of control; under setting [10], 83 % of control and 95 % of control.

For the compound `O=C(O)c1ccc(-c2ccccc2)cc1`, the T/C (dose: 200.0 mg/kg/injection, vehicle: carboxymethylcellulose (CMC)) was 70 % of control.

For the compound `S=c1c2[nH]cnc2ncn1CCSC1=NC=NC2=NC=NC21` (stereo not drawn), the T/C reads like this: under setting [3], 81 % of control; under setting [9], 35 % of control; (dose: 400.0 mg/kg/injection, vehicle: saline) 29 % of control.

Consider `O=C(NO)c1ccncc1`, for which the T/C reads like this: (dose: 125.0 mg/kg/injection, vehicle: saline) 113 % of control; (dose: 250.0 mg/kg/injection, vehicle: saline) 123 % of control; (dose: 500.0 mg/kg/injection, vehicle: saline) 102 % of control.

`CN(C)[C@@H]1C(=O)C(C(=O)NCN(CCCl)CCCl)=C(O)[C@@]2(O)C(=O)C3=C(O)c4c(O)cccc4[C@@](C)(O)[C@H]3C[C@@H]12`: the T/C (dose: 8.9 mg/kg/injection, vehicle: saline) was 105 % of control; the T/C (dose: 13.0 mg/kg/injection, vehicle: saline) was 84 % of control; the T/C (dose: 20.0 mg/kg/injection, vehicle: saline) was 94 % of control; the T/C (dose: 30.0 mg/kg/injection, vehicle: saline) is 52 % of control and 69 % of control; the T/C (dose: 44.0 mg/kg/injection, vehicle: saline) was 53 % of control.

As to `CS(=O)(=O)OCCCCCCCCCOS(C)(=O)=O`, the T/C is 81 % of control under setting [10]; 81 % of control (dose: 16.0 mg/kg/injection, vehicle: carboxymethylcellulose (CMC)); 57 % of control (dose: 28.0 mg/kg/injection, vehicle: carboxymethylcellulose (CMC)); 37 % of control under setting [8].

As to `CCN(CC)CCN1C(=O)c2cccc3cccc(c23)C1=O`, the T/C runs as follows: under setting [6], 86 % of control; under setting [7], 78 % of control; (dose: 100.0 mg/kg/injection, vehicle: carboxymethylcellulose (CMC)) 85 % of control.

On to `CCOC(=O)Sc1ncnc2nc[nH]c12`, for which the T/C (dose: 112.0 mg/kg/injection, vehicle: carboxymethylcellulose (CMC)) is 13 % of control.

Take `CCCCCCCCCCCCCS`: the T/C reads like this: under setting [1], 76 % of control; under setting [3], 87 % of control; under setting [4], 82 % of control; under setting [9], 89 % of control.
